Data published in US10821115B2, “Compounds that inhibit Mcl-1 protein” (priority 2017, dated 2020).
Read-outs that look alike come from different tables or passages of the source.

Tested on: human multiple myeloma cell line, OPM-2
Test: Cell viability assay (OPM-2 10 FBS), CellTiter-Glo
Format: cell-based
Description: Cell viability assay (OPM-2 10 FBS)
The human multiple myeloma cell line, OPM-2, was cultured in complete growth medium containing RPMI 1640 and 10% fetal bovine serum (FBS). Cells were seeded into 384-well plates at 3000 cells/well density in complete growth medium containing 10% FBS, and incubated for 16 h with serially diluted test compounds in a 37° C. incubator with 5% CO2. Cell viability was tested using CellTiter-Glo® assay (Promega, Madison, Wis.) according to the manufacturer recommendations. Luminescence was determined using an EnVision® Multilabel plate reader 25 min after the addition of detection reagent. IC50 values were then calculated with Xlfit using a logistical 4-parameter fit model in GraphPad Prism (GraphPad Software, San Diego, Calif.) or in Genedata Screener® (Genedata, Basel, Switzerland).

[1] = read-out: OPM-2 10% FBS IC50 IP, OPM-2 cells, 10% FBS, 16 h incubation
[2] = Homo sapiens, OPM-2, 16 h, read-out: OPM-2 10% FBS IC50 IP, OPM-2 cells, 10% FBS, 16 h incubation

| Compound | IC50 [1] | IC50 [2] |
| --- | --- | --- |
| CO[C@@]1(CN2CCN3CCCC[C@@H]3C2)/C=C/C[C@H](C)[C@@H](Cc2ccccc2)S(=O)(=O)NC(=O)c2ccc3c(c2)N(C[C@@H]2CC[C@H]21)C[C@@]1(CCCc2cc(Cl)ccc21)CO3 (single isomer, unassigned) [Example 104] | 782 nM |  |
| CO[C@@]1(CN2CCN3CCN(C)C[C@@H]3C2)/C=C/C[C@H](C)[C@@H](C)S(=O)(=O)NC(=O)c2ccc3c(c2)N(C[C@@H]2CC[C@H]21)C[C@@]1(CCCc2cc(Cl)ccc21)CO3 (single isomer, unassigned) [Example 217] | 192 nM |  |
| CO[C@@]1(CN2CCN3CCN(C(C)=O)C[C@@H]3C2)/C=C/C[C@H](C)[C@@H](C)S(=O)(=O)NC(=O)c2ccc3c(c2)N(C[C@@H]2CC[C@H]21)C[C@@]1(CCCc2cc(Cl)ccc21)CO3 (single isomer, unassigned) [Example 225] | 280 nM |  |
| CO[C@@]1(CN2CCN3CCN(C(C)=O)C[C@@H]3C2)/C=C/C[C@H](C)[C@@H](C)S(=O)(=O)NC(=O)c2ccc3c(c2)N(C[C@@H]2CC[C@H]21)C[C@@]1(CCCc2cc(Cl)ccc21)CO3 (single isomer, unassigned) [Example 226] | 49 nM |  |
| CO[C@]1(CN2CCN3CCN(C(C)=O)C[C@@H]3C2)/C=C/C[C@H](C)[C@@H](C)S(=O)(=O)NC(=O)c2ccc3c(c2)N(C[C@@H]2CC[C@H]21)C[C@@]1(CCCc2cc(Cl)ccc21)CO3 (single isomer, unassigned) [Example 229] | 96 nM |  |
| CO[C@]1(CN2CCN3CCN(C(C)=O)C[C@@H]3C2)/C=C/C[C@H](C)[C@@H](C)S(=O)(=O)NC(=O)c2ccc3c(c2)N(C[C@@H]2CC[C@H]21)C[C@@]1(CCCc2cc(Cl)ccc21)CO3 (single isomer, unassigned) [Example 230] | 70 nM |  |
| C[C@@H]1[C@@H](C)C/C=C/C(O)(CN2CCN3CCCC[C@@H]3C2)[C@@H]2CC[C@H]2CN2C[C@@]3(CCCc4cc(Cl)ccc43)COc3ccc(cc32)C(=O)NS1(=O)=O (single isomer, unassigned) [Example 242] | 791 nM |  |
| C[C@@H]1[C@@H](C)C/C=C/C(O)(CN2CCN3CCCC[C@@H]3C2)[C@@H]2CC[C@H]2CN2C[C@@]3(CCCc4cc(Cl)ccc43)COc3ccc(cc32)C(=O)NS1(=O)=O (single isomer, unassigned) [Example 243] | 106 nM |  |
| CCO[C@]1(CN2CCN(C3COC3)CC2)/C=C/C[C@H](C)[C@@H](C)S(=O)(=O)NC(=O)c2ccc3c(c2)N(C[C@@H]2CC[C@H]21)C[C@@]1(CCCc2cc(Cl)ccc21)CO3 [Example 2, (1 S,3′R,6′R,7′R,8′E,11′S,12′R)-6-chloro-7′-ethoxy-11′,12′-dimethyl-7′-((4-(3-oxetanyl)-1-piperazinyl)methyl)-3,4-dihydro-2H, 15′H-spiro[naphthalene-1,22′-[20]oxa[13]thia[1,14]diazatetracyclo[14.7.2.0-3,6˜.0˜19,24˜]pentacosa[8,16,18,24]tetraen]-15′-one 13′,13′-dioxide] |  | 76 nM |
| CCO[C@]1(CN2CCN(C(C)(C)C)CC2)/C=C/C[C@H](C)[C@@H](C)S(=O)(=O)NC(=O)c2ccc3c(c2)N(C[C@@H]2CC[C@H]21)C[C@@]1(CCCc2cc(Cl)ccc21)CO3 [Example 6, (1S,3′R,6′R,7′R,8′E,11′S,12′R)-7′-((4-TERT-BUTYL-1-PIPERAZINYL)METHYL)-6-CHLORO-7′-ETHOXY-11′,12′-DIMETHYL-3,4-DIHYDRO-2H,15′H-SPIRO[NAPHTHALENE-1,22′-[20]OXA[13]THIA[1,14]DIAZATETRACYCLO[14.7.2.0-3,6˜.0˜19,24˜]PENT ACOSA[8,16,18,24]TETRAEN]-15′-ONE 13′,13′-DIOXIDE] |  | 76 nM |
| C[C@@H]1[C@@H](C)CCC[C@@](O)(CN2CCN3CCOC[C@@H]3C2)[C@@H]2CC[C@H]2CN2C[C@@]3(CCCc4cc(Cl)ccc43)COc3ccc(cc32)C(=O)NS1(=O)=O [Example 7, (1S,3′R,6′R,7′S,11′S,12′R)-6-CHLORO-7′-((9AS)-HEXAHYDROPYRAZINO [2,1-C][1,4]OXAZIN-8(1H)-YLMETHYL)-7′-HYDROXY-11′,12′-DIMETHYL-3,4-DIHYDRO-2H, 15′H-SPIRO[NAPHTHALENE-1,22′-[20]OXA[13]THIA[1,14]DIAZATETRACYCLO[14.7.2.0-3,6˜.0˜19,24˜]PENT ACOSA[16,18,24]TRIEN]-15′-ONE 13′,13′-DIOXIDE] | 25 nM |  |
| CCO[C@]1(CN2CCN(C(C)C)[C@H](C)C2)/C=C/C[C@H](C)[C@@H](C)S(=O)(=O)NC(=O)c2ccc3c(c2)N(C[C@@H]2CC[C@H]21)C[C@@]1(CCCc2cc(Cl)ccc21)CO3 [Example 9, (1 S,3′R,6′R,7′R,8′E,11′S, 12′R)-6-CHLORO-7′-ETHOXY-11′,12′-DIMETHYL-7′-(((3R)-3-METHYL-4-(1-METHYLETHYL)-1-PIPERAZINYL)METHYL)-3,4-DIHYDRO-2H, 15′H-SPIRO[NAPHTHALENE-1,22′-[20]OXA[13]THIA[1,14]DIAZATETRACYCLO[14.7.2.0-3,6˜.0˜19,24˜]PENT ACOSA[8,16,18,24]TETRAEN]-15′-ONE 13′,13′-DIOXIDE] | 50 nM |  |
| COCC[C@@H]1[C@@H](C)C/C=C/[C@@](CN2CCN(C(C)C)[C@H](C)C2)(OC)[C@@H]2CC[C@H]2CN2C[C@@]3(CCCc4cc(Cl)ccc43)COc3ccc(cc32)C(=O)NS1(=O)=O [Example 12, (1S,3′R,6′R,7′R,8′E,11′S,12′R)-6-chloro-7′-methoxy-12′-(2-methoxyethyl)-11′-methyl-7′-(((3R)-3-methyl-4-(1-methylethyl)-1-piperazinyl)methyl)-3,4-dihydro-2H, 15′H-spiro[naphthalene-1,22′-[20]oxa[13]thia[1,14]diazatetracyclo[14.7.2.0-3,6˜.0˜19,24˜]pentacosa[8,16,18,24]tetraen]-15′-one 13′,13′-dioxide] |  | 22 nM |
| CCO[C@]1(CN2CCN3CCOC[C@@H]3C2)/C=C/C[C@H](C)[C@@H](CCOC)S(=O)(=O)NC(=O)c2ccc3c(c2)N(C[C@@H]2CC[C@H]21)C[C@@]1(CCCc2cc(Cl)ccc21)CO3 [Example 13, (1 S,3′R,6′R,7′R,8′E,11′S,12′R)-6-chloro-7′-ethoxy-7′-((9aS)-hexahydropyrazino[2,1-c][1,4]oxazin-8(1H)-ylmethyl)-12′-(2-methoxyethyl)-11′-methyl-3,4-dihydro-2H,15′H-spiro[naphthalene-1,22′-[20]oxa[13]thia[1,14]diazatetracyclo[14.7.2.0-3,6˜.0˜19,24˜]pentacosa[8,16,18,24]tetraen]-15′-one 13′,13′-dioxide] |  | 63 nM |
| CCO[C@]1(CN2CCN(C3COC3)CC2)/C=C/C[C@H](C)[C@@H](CCOC)S(=O)(=O)NC(=O)c2ccc3c(c2)N(C[C@@H]2CC[C@H]21)C[C@@]1(CCCc2cc(Cl)ccc21)CO3 [Example 14, (1S,3′R,6′R,7′R,8′E,11′S,12′R)-6-chloro-7′-ethoxy-12′-(2-methoxyethyl)-11′-methyl-7′-((4-(3-oxetanyl)-1-piperazinyl)methyl)-3,4-dihydro-2H,15′H-spiro[naphthalene-1,22′-[20]oxa[13]thia[1,14]diazatetracyclo[14.7.2.0-3,6˜.0˜19,24˜]pentacosa[8,16,18,24]tetraen]-15′-one 13′,13′-dioxide] |  | 59 nM |
| CCO[C@]1(CN2CCN3CCCC[C@@H]3C2)/C=C/C[C@H](C)[C@@H](CCOC)S(=O)(=O)NC(=O)c2ccc3c(c2)N(C[C@@H]2CC[C@H]21)C[C@@]1(CCCc2cc(Cl)ccc21)CO3 [Example 15, (1S,3′R,6′R,7′R,8′E,11′S,12′R)-6-chloro-7′-ethoxy-12′-(2-methoxyethyl)-11′-methyl-7′-((9aR)-octahydro-2H-pyrido[1,2-a]pyrazin-2-ylmethyl)-3,4-dihydro-2H,15′H-spiro[naphthalene-1,22′-[20]oxa[13]thia[1,14]diazatetracyclo[14.7.2.0-3,6˜.0˜19,24˜]pentacosa[8,16,18,24]tetraen]-15′-one 13′,13′-dioxide] |  | 71 nM |
| CCO[C@]1(CN2CCN(C(C)C)CC2)/C=C/C[C@H](C)[C@@H](CCOC)S(=O)(=O)NC(=O)c2ccc3c(c2)N(C[C@@H]2CC[C@H]21)C[C@@]1(CCCc2cc(Cl)ccc21)CO3 [Example 16, (1S,3′R,6′R,7′R,8′E,11′S,12′R)-6-chloro-7′-ethoxy-12′-(2-methoxyethyl)-11′-methyl-7′-((4-(1-methylethyl)-1-piperazinyl)methyl)-3,4-dihydro-2H, 15′H-spiro[naphthalene-1,22′-[20]oxa[13]thia[1,14]diazatetracyclo[14.7.2.0-3,6˜.0˜19,24˜]pentacosa[8,16,18,24]tetraen]-15′-one 13′,13′-dioxide] |  | 53 nM |
| CCO[C@]1(CN2CCN(C(C)C)[C@H](C)C2)/C=C/C[C@H](C)[C@@H](CCOC)S(=O)(=O)NC(=O)c2ccc3c(c2)N(C[C@@H]2CC[C@H]21)C[C@@]1(CCCc2cc(Cl)ccc21)CO3 [Example 17, (1S,3′R,6′R,7′R,8′E,11′S,12′R)-6-chloro-7′-ethoxy-12′-(2-methoxyethyl)-11′-methyl-7′-(((3R)-3-methyl-4-(1-methylethyl)-1-piperazinyl)methyl)-3,4-dihydro-2H,15′H-spiro[naphthalene-1,22′-[20]oxa[13]thia[1,14]diazatetracyclo[14.7.2.0-3,6˜.0˜19,24˜]pentacosa[8,16,18,24]tetraen]-15′-one 13′,13′-dioxide] | 34 nM |  |
| CO[C@@]1(CN2CCN(C3COC3)CC2)/C=C/C[C@H](C)[C@@H](C)S(=O)(=O)NC(=O)c2ccc3c(n2)N(C[C@@H]2CC[C@H]21)C[C@@]1(CCCc2cc(Cl)ccc21)CO3 [Example 19, (1 S,3′R,6′R,7′S,8′E,11′S,12′R)-6-chloro-7′-methoxy-11′,12′-dimethyl-7′-((4-(3-oxetanyl)-1-piperazinyl)methyl)-3,4-dihydro-2H, 15′H-spiro[naphthalene-1,22′-[20]oxa[13]thia[1,14,25]triazatetracyclo[14.7.2.0-3,6˜.0˜19,24˜]pentacosa[8,16,18,24]tetraen]-15′-one 13′,13′-dioxide] |  | 47 nM |
